Reference: patent US20110124607A1, “COMPOSITION FOR REGULATION CELLULAR SENESCENCE COMPRISING LYSOPHOSPHATIDIC ACID AND INHIBITOR OF ADENYLYL CYCLASE AS ACTIVE INGREDIENTS” (priority 2008, published 2011)

Assays:
[1] = system: senescent cells (human fibroblasts); assay: Cell proliferation by counting live cells (trypan blue), senescent cells; format: cell-based; conditions: serum-starved 2 days, counted day 1, 2, 4, 30 μM LPA, 300 μM ACI, 10 mM AMPKI, 10 mM AICAR
Method: (§1) Human fibroblasts were prepared by primary culture of foreskin of a newborn baby (Boyce and Ham, 1983). The primary culture was performed in DMEM supplemented with 10% FBS and 1% antibiotics. The protein contents of young cells from the early stage of sub-culture, with a population doubling (PD) of less than 25, were compared to those of at least PD 65-70 senescent cells. […] In senescent cells, the activity of beta-galactosidase was increased and cell proliferation was reduced (Yeo et al., 2000).
(§2) Prior to LPA and ACI treatment, cells were grown for 1-2 days to 60-70% sub-confluence in DMEM-containing culture medium, and then serum-starved to quiescence (that is Go/G1 arrest) by incubation in a serum-free medium containing 0.1% bovine serum albumin (BSA) for 2 days. Young and senescent cells were treated with LPA, ACI, LPA+ACI, AMPKI and AICAR, respectively. Live cells were measured after staining the cells with trypan blue on day 1, day 2 and day 4 to confirm cell proliferation.
(§3) Cell proliferation and cAMP level were increased by LPA in senescent cells (Yeo et al., 2002). The AC inhibitor (ACI) was added to reduce cAMP which had been increased by LPA. And then, cell proliferation was investigated. Cells were cultured in serum-free medium for 2 days to arrest them in G0/G1 phase. Then, the cells were treated with LPA, ACI or LPA+ACI. Total cell number was measured on day 1, day 2 and day 4, or the cells entered into S phase were counted to evaluate cell proliferation. When young cells were treated with 300 μM of ACI, cell proliferation was reduced, compared with control (FIG. 1A). In the meantime, when senescent cells were treated with 300 μM of ACI, cell proliferation was increased, compared with control (FIG. 1B).

[2] = system: p-Thr172-AMPKα; assay: Immuno-blotting of p-Thr172-AMPKα; format: cell-based, human; conditions: 30 μM LPA, 300 μM ACI, 10 mM AMPKI, 10 mM AICAR, up to day 4
Method: (§4) (A) and (B): Young and senescent cells were serum-starved for 2 days, followed by treatment with 10 mM of AMPK inhibitor […]) or 10 mM of AMPK activator AICAR(B) for 4 days. Proteins were extracted from the treated cells and the levels of AMPKα and p-Thr172-AMPKα, total p53, p-Ser15-p53 and […] measured by immuno-blotting. (C) and (D): Young cells (C) and senescent cells (D) were treated with 10 mM AMPKI or 10 mM AICAR and cultured for 4 days, followed by measurement of cell proliferation by cell counting. At this time, the experiment was repeated three times (p<0.001). (A) and (B) are photographs illustrating the results of immuno-blotting. Precisely, sub-cultured young cells (PD 18: A) and senescent cells (PD 64: B) were treated with 30 μM of LPA […] and ACI singly or together, followed by further culture for 1, 2, and 4 days. Proteins were extracted from the cultured cells and the levels of AMPKα, […] β-actin were quantified by immuno-blotting. (A) and (B) are photographs illustrating the results of immuno-blotting. Precisely, senescent cells (PD 64) were pre-treated with 10 mM of PKA inhibitor Rp-cAMP for one hour, followed by treatment with LPA(A) or ACI(B). After culturing the cells for 1, 2, and 4 days, proteins were extracted from the cultured cells and the levels of AMPKα, […] β-actin were quantified by immuno-blotting using 45 μg of the protein. To analyse protein expression, human fibroblasts were lysed in cold lysis buffer (25 mM Hepes, pH 8.0, 150 mM NaCl, 1 mM EDTA, 1 mM Na3VO4, 1 mM NaF, 1% Triton X-100 and protease inhibitors), followed by centrifugation at 4° C. at 9,000 rpm for 10 minutes to obtain supernatant. Protein in the extract was quantified […]. SDS-PAGE electrophoresis was performed with equal amount of the protein (45 μg) to separate. The separated protein was transferred onto NC membrane from the electrophoresis gel. Non-specific protein binding was blocked by blocking the blot (transferred NC membrane) using TTBS […] containing 5% skim milk for one hour. Then, antigen-antibody reaction was induced with diluted primary antibody at 4° C. for overnight. The blot was washed with TTBS, followed by reaction with horseradish peroxidase conjugated anti-IgGs diluted in TTBS containing 5% skim milk (1:5000) at room temperature for one hour. The blot was washed again with TTBS to eliminate non-specific binding of antigen-antibody. Photographs were developed/printed on X-ray film (Kodak) using ECL kit (Pierce) containing peroxidase substrate to identify each protein.

[3] = system: p-Ser15-p53; assay: Immuno-blotting of p-Ser15-p53; format: cell-based, human; conditions: 10 mM AMPKI, 10 mM AICAR
Method: as §4

[4] = system: p21waf1/cip1; assay: Immuno-blotting of p21waf1/cip1; format: cell-based, human; conditions: 10 mM AMPKI, 10 mM AICAR
Method: as §4

[5] = system: young cells (human fibroblasts); assay: Cell proliferation by counting live cells (trypan blue), young cells; format: cell-based; conditions: serum-starved 2 days, counted day 1, 2, 4, 30 μM LPA, 300 μM ACI, 10 mM AMPKI, 10 mM AICAR
Method: as §1, §2, §3

[6] = senescent cells, 30 μM LPA, 300 μM ACI

Question: NC(=O)c1ncn([C@@H]2O[C@H](CO)[C@@H](O)[C@H]2O)c1N [AICAR] was tested. Which “cell proliferation (cell number) compared with control” value [1] did it give?
Answer: suppressed

Question: What about the Thr172-AMPKα phosphorylation ([2]; senescent cells) of the same compound?
Answer: increased

Question: What about the Thr172-AMPKα phosphorylation ([2]; young cells) of the same compound?
Answer: increased

Question: What about the p-Ser15-p53 expression [3, 6] of the same compound?
Answer: increased

Question: What about the p-Ser15-p53 expression ([3]; young cells, 4 days) of the same compound?
Answer: increased

Question: And the “p21 expression (immuno-blotting)” value [4, 6]?
Answer: increased

Question: What about the “p21 expression (immuno-blotting)” value ([4]; young cells, 4 days) of the same compound?
Answer: increased

Question: What about the “cell proliferation (cell number) compared with control” value [5] of the same compound?
Answer: suppressed
